{
  "source": "patent US8063048B2",
  "about": "“Acetylenyl-pyrazolo-pyrimidine derivatives” (Hoffmann-La Roche Inc., priority 2005, dated 2011)",
  "data": [
    {"smiles": "Cc1cc(C#Cc2cnn3c(C(F)(F)F)cc(-c4ccc(C(F)(F)F)cc4)nc23)ccn1", "note": "[Example 2, 3-(2-Methyl-pyridin-4-ylethynyl)-7-trifluoromethyl-5-(4-trifluoromethyl-phenyl)-pyrazolo[1,5-a]pyrimidine]", "values": [
      {"measurement": "melting point", "result": 206, "unit": "°C"}
    ]},
    {"smiles": "FC(F)(F)c1ccc(-c2cc(C(F)(F)F)n3ncc(C#Cc4cccnc4)c3n2)cc1", "note": "[Example 3, 3-Pyridin-3-ylethynyl-7-trifluoromethyl-5-(4-trifluoromethyl-phenyl)-pyrazolo[1,5-a]pyrimidine]", "values": [
      {"measurement": "melting point", "result": "187 to 188", "unit": "°C"}
    ]},
    {"smiles": "CC(C)(CO)NS(=O)(=O)c1cccc(C#Cc2cnn3c(C(F)(F)F)cc(-c4ccc(C(F)(F)F)cc4)nc23)c1", "note": "[Example 4, N-(2-Hydroxy-1,1-dimethyl-ethyl)-3-[7-trifluoromethyl-5-(4-trifluoromethyl-phenyl)-pyrazolo[1,5-a]pyrimidin-3-ylethynyl]-benzenesulfonamide]", "values": [
      {"measurement": "melting point", "result": "201 to 204", "unit": "°C"}
    ]},
    {"smiles": "NS(=O)(=O)c1cncc(C#Cc2cnn3c(C(F)(F)F)cc(-c4ccc(C(F)(F)F)cc4)nc23)c1", "note": "[Example 5, 5-[7-Trifluoromethyl-5-(4-trifluoromethyl-phenyl)-pyrazolo[1,5-a]pyrimidin-3-ylethynyl]-pyridine-3-sulfonic acid amide]", "values": [
      {"measurement": "melting point", "result": "239 to 240", "unit": "°C"}
    ]},
    {"smiles": "FC(F)(F)c1ccc(-c2cc(C(F)(F)F)n3ncc(C#Cc4ccccn4)c3n2)cc1", "note": "[Example 6, 3-Pyridin-2-ylethynyl-7-trifluoromethyl-5-(4-trifluoromethyl-phenyl)-pyrazolo[1,5-a]pyrimidine]", "values": [
      {"measurement": "melting point", "result": "158 to 159", "unit": "°C"}
    ]},
    {"smiles": "FC(F)(F)c1ccc(-c2cc(C(F)(F)F)n3ncc(C#Cc4ccncc4)c3n2)cc1", "note": "[Example 7, 3-Pyridin-4-ylethynyl-7-trifluoromethyl-5-(4-trifluoromethyl-phenyl)-pyrazolo[1,5-a]pyrimidine]", "values": [
      {"measurement": "melting point", "result": "252 to 256", "unit": "°C"}
    ]},
    {"smiles": "FC(F)(F)c1ccc(-c2cc(C(F)(F)F)n3ncc(C#Cc4cccnc4C4CC4)c3n2)cc1", "note": "[Example 8, 3-(2-Cyclopropyl-pyridin-3-ylethynyl)-7-trifluoromethyl-5-(4-trifluoromethyl-phenyl)-pyrazolo[1,5-a]pyrimidine]", "values": [
      {"measurement": "melting point", "result": 202, "unit": "°C"}
    ]},
    {"smiles": "Cc1ccc(C#Cc2cnn3c(C(F)(F)F)cc(-c4ccc(C(F)(F)F)cc4)nc23)cn1", "note": "[Example 9, 3-(6-Methyl-pyridin-3-ylethynyl)-7-trifluoromethyl-5-(4-trifluoromethyl-phenyl)-pyrazolo[1,5-a]pyrimidine]", "values": [
      {"measurement": "melting point", "result": 195, "unit": "°C"}
    ]},
    {"smiles": "FC(F)(F)c1ccc(-c2cc(C(F)(F)F)n3ncc(C#Cc4ccc(C5CC5)nc4)c3n2)cc1", "note": "[Example 10, 3-(2-Cyclopropyl-pyridin-5-ylethynyl)-7-trifluoromethyl-5-(4-trifluoromethyl-phenyl)-pyrazolo[1,5-a]pyrimidine]", "values": [
      {"measurement": "melting point", "result": "138 to 140", "unit": "°C"}
    ]},
    {"smiles": "CC(C)(CO)NS(=O)(=O)c1cncc(C#Cc2cnn3c(C(F)(F)F)cc(-c4ccc(C(F)(F)F)cc4)nc23)c1", "note": "[Example 11, 5-[7-Trifluoromethyl-5-(4-trifluoromethyl-phenyl)-pyrazolo[1,5-a]pyrimidin-3-ylethynyl]-pyridine-3-sulfonic acid (2-hydroxy-1,1-dimethyl-ethyl)-amide]", "values": [
      {"measurement": "melting point", "result": "226 to 227", "unit": "°C"}
    ]},
    {"smiles": "Cc1ncccc1C#Cc1cnn2c(C(F)(F)F)cc(-c3ccc(C(F)(F)F)cc3)nc12", "note": "[Example 12, 3-(2-Methyl-pyridin-3-ylethynyl)-7-trifluoromethyl-5-(4-trifluoromethyl-phenyl)-pyrazolo[1,5-a]pyrimidine]", "values": [
      {"measurement": "melting point", "result": 198, "unit": "°C"}
    ]},
    {"smiles": "O=S(=O)(c1cncc(C#Cc2cnn3c(C(F)(F)F)cc(-c4ccc(C(F)(F)F)cc4)nc23)c1)N(CCO)CCO", "note": "[Example 13, 5-[7-Trifluoromethyl-5-(4-trifluoromethyl-phenyl)-pyrazolo[1,5-a]pyrimidin-3-ylethynyl]-pyridine-3-sulfonic acid bis-(2-hydroxy-ethyl)-amide]", "values": [
      {"measurement": "melting point", "result": "173 to 178", "unit": "°C"}
    ]},
    {"smiles": "CC(CO)(CO)NS(=O)(=O)c1cncc(C#Cc2cnn3c(C(F)(F)F)cc(-c4ccc(C(F)(F)F)cc4)nc23)c1", "note": "[Example 14, 5-[7-Trifluoromethyl-5-(4-trifluoromethyl-phenyl)-pyrazolo[1,5-a]pyrimidin-3-ylethynyl]-pyridine-3-sulfonic acid (2-hydroxy-1-hydroxymethyl-1-methyl-ethyl)-amide]", "values": [
      {"measurement": "melting point", "result": "228 to 231", "unit": "°C"}
    ]},
    {"smiles": "NC(=O)c1cncc(C#Cc2cnn3c(C(F)(F)F)cc(-c4ccc(C(F)(F)F)cc4)nc23)c1", "note": "[Example 15, 5-[7-Trifluoromethyl-5-(4-trifluoromethyl-phenyl)-pyrazolo[1,5-a]pyrimidin-3-ylethynyl]-nicotinamide]", "values": [
      {"measurement": "melting point", "result": "285 to 287", "unit": "°C"}
    ]},
    {"smiles": "CC(C)(C)NS(=O)(=O)c1cncc(C#Cc2cnn3c(C(F)(F)F)cc(-c4ccc(C(F)(F)F)cc4)nc23)c1", "note": "[Example 17, 5-[7-Trifluoromethyl-5-(4-trifluoromethyl-phenyl)-pyrazolo[1,5-a]pyrimidin-3-ylethynyl]-pyridine-3-sulfonic acid tert-butylamide]", "values": [
      {"measurement": "melting point", "result": 224, "unit": "°C"}
    ]},
    {"smiles": "COc1ncc(S(=O)(=O)NC(C)(C)CO)cc1C#Cc1cnn2c(C(F)(F)F)cc(-c3ccc(C(F)(F)F)cc3)nc12", "note": "[Example 18, 6-Methoxy-5-[7-trifluoromethyl-5-(4-trifluoromethyl-phenyl)-pyrazolo[1,5-a]pyrimidin-3-ylethynyl]-pyridine-3-sulfonic acid (2-hydroxy-1,1-dimethyl-ethyl)-amide]", "values": [
      {"measurement": "melting point", "result": "209 to 210", "unit": "°C"}
    ]},
    {"smiles": "O=S(=O)(O)c1cnc(C#Cc2cnn3c(C(F)(F)F)cc(-c4ccc(C(F)(F)F)cc4)nc23)s1", "note": "[Example 20, 2-[7-Trifluoromethyl-5-(4-trifluoromethyl-phenyl)-pyrazolo[1,5-a]pyrimidin-3-ylethynyl]-thiazole-5-sulfonic acid]", "values": [
      {"measurement": "melting point", "result": "> 295", "unit": "°C"}
    ]},
    {"smiles": "FC(F)(F)c1cc(-c2ccc(Cl)cc2)nc2c(C#Cc3cccnc3)cnn12", "note": "[Example 21, 5-(4-Chloro-phenyl)-3-pyridin-3-ylethynyl-7-trifluoromethyl-pyrazolo[1,5-a]pyrimidine]", "values": [
      {"measurement": "melting point", "result": "214 to 215", "unit": "°C"}
    ]},
    {"smiles": "O=S(=O)(NC(CO)(CO)CO)c1cncc(C#Cc2cnn3c(C(F)(F)F)cc(-c4ccc(C(F)(F)F)cc4)nc23)c1", "note": "[Example 22, 5-[7-Trifluoromethyl-5-(4-trifluoromethyl-phenyl)-pyrazolo[1,5-a]pyrimidin-3-ylethynyl]-pyridine-3-sulfonic acid (2-hydroxy-1,1-bis-hydroxymethyl-ethyl)-amide]", "values": [
      {"measurement": "melting point", "result": "230 to 232", "unit": "°C"}
    ]},
    {"smiles": "CC(C)(CO)NS(=O)(=O)c1cnc(C#Cc2cnn3c(C(F)(F)F)cc(-c4ccc(C(F)(F)F)cc4)nc23)s1", "note": "[Example 23, 2-[7-Trifluoromethyl-5-(4-trifluoromethyl-phenyl)-pyrazolo[1,5-a]pyrimidin-3-ylethynyl]-thiazole-5-sulfonic acid (2-hydroxy-1,1-dimethyl-ethyl)-amide]", "values": [
      {"measurement": "melting point", "result": "252 to 253", "unit": "°C"}
    ]},
    {"smiles": "CC(C)(C)NS(=O)(=O)c1cccc(C#Cc2cnn3c(C(F)(F)F)cc(-c4ccc(C(F)(F)F)cc4)nc23)c1", "note": "[Example 24, N-tert-Butyl-3-[7-trifluoromethyl-5-(4-trifluoromethyl-phenyl)-pyrazolo[1,5-a]pyrimidin-3-ylethynyl]-benzenesulfonamide]", "values": [
      {"measurement": "melting point", "result": "192 to 200", "unit": "°C"}
    ]},
    {"smiles": "COc1ncc(S(=O)(=O)NC(C)(CO)CO)cc1C#Cc1cnn2c(C(F)(F)F)cc(-c3ccc(C(F)(F)F)cc3)nc12", "note": "[Example 25, 6-Methoxy-5-[7-trifluoromethyl-5-(4-trifluoromethyl-phenyl)-pyrazolo[1,5-a]pyrimidin-3-ylethynyl]-pyridine-3-sulfonic acid (2-hydroxy-1-hydroxymethyl-1-methyl-ethyl)-amide]", "values": [
      {"measurement": "melting point", "result": "233 to 235", "unit": "°C"}
    ]},
    {"smiles": "CC(CO)(CO)NS(=O)(=O)c1cncc(C#Cc2cnn3c(C(F)F)cc(-c4ccc(C(F)(F)F)cc4)nc23)c1", "note": "[Example 26, 5-[7-Difluoromethyl-5-(4-trifluoromethyl-phenyl)-pyrazolo[1,5-a]pyrimidin-3-ylethynyl]-pyridine-3-sulfonic acid (2-hydroxy-1-hydroxymethyl-1-methyl-ethyl)-amide]", "values": [
      {"measurement": "melting point", "result": "204 to 206", "unit": "°C"}
    ]},
    {"smiles": "CC(C)(CO)NS(=O)(=O)c1cncc(C#Cc2cnn3c(C(F)F)cc(-c4ccc(C(F)(F)F)cc4)nc23)c1", "note": "[Example 27, 5-[7-Difluoromethyl-5-(4-trifluoromethyl-phenyl)-pyrazolo[1,5-a]pyrimidin-3-ylethynyl]-pyridine-3-sulfonic acid (2-hydroxy-1,1-dimethyl-ethyl)-amide]", "values": [
      {"measurement": "melting point", "result": "200 to 201", "unit": "°C"}
    ]},
    {"smiles": "CC(CO)NS(=O)(=O)c1cncc(C#Cc2cnn3c(C(F)(F)F)cc(-c4ccc(C(F)(F)F)cc4)nc23)c1", "note": "(centres unmarked) [Example 28, 5-[7-Trifluoromethyl-5-(4-trifluoromethyl-phenyl)-pyrazolo[1,5-a]pyrimidin-3-ylethynyl]-pyridine-3-sulfonic acid (2-hydroxy-1-methyl-ethyl)-amide]", "values": [
      {"measurement": "melting point", "result": "225 to 226", "unit": "°C"}
    ]},
    {"smiles": "NS(=O)(=O)c1cnc(C#Cc2cnn3c(C(F)(F)F)cc(-c4ccc(C(F)(F)F)cc4)nc23)s1", "note": "[Example 29, 2-[7-Trifluoromethyl-5-(4-trifluoromethyl-phenyl)-pyrazolo[1,5-a]pyrimidin-3-ylethynyl]-thiazole-5-sulfonic acid amide]", "values": [
      {"measurement": "melting point", "result": 235, "unit": "°C"}
    ]},
    {"smiles": "NS(=O)(=O)c1cncc(C#Cc2cnn3c(C(F)F)cc(-c4ccc(C(F)(F)F)cc4)nc23)c1", "note": "[Example 30, 5-[7-Difluoromethyl-5-(4-trifluoromethyl-phenyl)-pyrazolo[1,5-a]pyrimidin-3-ylethynyl]-pyridine-3-sulfonic acid amide]", "values": [
      {"measurement": "melting point", "result": 238, "unit": "°C"}
    ]},
    {"smiles": "NS(=O)(=O)c1cc(C#Cc2cnn3c(C(F)F)cc(-c4ccc(C(F)(F)F)cc4)nc23)c(F)cc1F", "note": "[Example 31, 5-[7-Difluoromethyl-5-(4-trifluoromethyl-phenyl)-pyrazolo[1,5-a]pyrimidin-3-ylethynyl]-2,4-difluoro-benzenesulfonamide]", "values": [
      {"measurement": "melting point", "result": "256 to 258", "unit": "°C"}
    ]},
    {"smiles": "CC(C)(CO)NS(=O)(=O)c1cccc(C#Cc2cnn3c(C(F)F)cc(-c4ccc(C(F)(F)F)cc4)nc23)c1", "note": "[Example 32, 3-[7-Difluoromethyl-5-(4-trifluoromethyl-phenyl)-pyrazolo[1,5-a]pyrimidin-3-ylethynyl]-N-(2-hydroxy-1,1-dimethyl-ethyl)-benzenesulfonamide]", "values": [
      {"measurement": "melting point", "result": "161 to 162", "unit": "°C"}
    ]}
  ]
}
